Laboratory results reported in patent US20060084599A1, “Compositions, methods and kits relating to notch signaling” (Maine Medical Center, priority 2003, published 2006).

Legend:
Src = Src pY418 immunoblot; assay type: cell-based, mouse; conditions: stable NIH 3T3 cell transfectants expressing the ligand
Procedure: Immunoblot Analysis. Cell lysates from insert-less vector sDl1 and sJ1 NIH 3T3 cell transfectants were prepared in 20 mM Tris HCl, pH 7.5, containing 300 mM sucrose, 60 mM—KCl, 15 mM NaCl, 0.5 mM EDTA, 0.5% (v/v) Triton X-100, 1 mM phenylmethylsulfonyl fluoride, 10 μg/ml leupeptin, 2 μg/ml aprotinin, 0.1% (w/v) deoxycholic acid and 1 mM sodium orthovanadate. Samples of equal protein content were subjected to SDS-PAGE and immunoblot analysis was performed as previously described (Small et al., 2001, J. Biol. Chem. 276:32022-32030) using either a rabbit anti-Src [pY418] phosphospecific antibody (Biosource International), a rabbit anti-total Src antibody (Santa Cruz Biotechnology), a rabbit polyclonal anti-cortactin antibody (a gift from Dr. Xi Zhan, American Red Cross), or an anti-phosphotyrosine antibody (Upstate). Immunoprecipitation of cortactin was performed as previously described (Zhan et al., 1993, J. Biol. Chem. 268:24427-24431).

[1] = test system: NIH 3T3 stable transfectants; test: FGF1 release in stable NIH 3T3 cell transfectants (Example 1); assay type: cell-based, murine; conditions: sJ1 stable transfectants transduced with FGF1 adenovirus, 37° C.
Procedure: Adenovirus vector expressing lacZ, FGF1, caN1, dnN1, caN2 or dnN2 was prepared as described (Hardy et al., 1997, J. Virol. 71: 1842-1849) at a titer of approximately 10^12 viral particles/ml. For adenoviral transduction, NIH 3T3 stable transfectants were incubated in serum-free medium with approximately […] viral particles/cell in the presence of poly-D-lysine hydrobromide (Sigma) (5×10^3 molecules/viral particle) for two hours at 37° C., after which the adenovirus-containing media was removed and replaced with serum-containing medium (10% BCS) for an additional 24 hours. The transduced cells were harvested by trypsin digestion and seeded for the heat shock experiments as previously described (Jackson et al., 1992, Proc. Natl. Acad. Sci. USA 89: 10691-10695). After heat shock, the conditioned media from cells exposed to either 37° C. (normal conditions) or 42° C. (heat shock conditions) were treated with 0.1% DTT for 2 hours at 37° C., adsorbed to heparin-Sepharose and eluted from the column with 1.5 M NaCl. The eluants were resolved by 15% (w/v) SDS-PAGE and evaluated by FGF1 immunoblot analysis as described (Jackson et al., 1992, Proc. Natl. Acad. Sci. USA 89: 10691-10695).

[2] = test system: NIH 3T3 cell transfectants; test: Immunofluorescence microscopy of actin stress fibers and focal adhesion sites; assay type: cell-based, mouse; conditions: stable NIH 3T3 cell transfectants expressing the ligand
Procedure: Immunofluorescence Microscopy. Cells were plated on glass coverslips and fixed with 4% (v/v) paraformaldehyde. Actin stress fibers were visualized by FITC-conjugated phalloidin (Sigma), a monoclonal anti-vinculin antibody (Sigma) was used to visualize focal adhesion sites, and a monoclonal anti-β-catenin antibody (BD Transduction Laboratories) and a monoclonal anti-pan cadherin antibody (Sigma) were both used to visualize cell-cell adhesions. Immunofluorescent staining and confocal microscopy were performed as previously described (Small et al., 2001, J. Biol. Chem. 276:32022-32030).

NIH 3T3 cells = test: Cell migration (scratch) assay; assay type: cell-based, mouse; conditions: stable NIH 3T3 cell transfectants expressing the ligand
Procedure: Cell Migration Assay. Approximately 10^5 Sj1 or sDl1 NIH 3T3 cells were plated in 6-well plastic plates (Falcon) DMEM supplemented with 10% (w/v) bovine calf serum (BCS; Hyclone) and after the cells reached approximately 60-70% confluence, the cell monolayer was scratched using a plastic cell scraper. Photomicrographs were taken immediately after the injury and 24 hours and 48 hours later.

human Jagged1 [3] = target: T1, human Jagged1 (Homo sapiens, UniProt P78504, A1171G); test: Thrombin cleavage of in vitro translated Jagged1 and Edman microsequencing; assay type: biochemical; conditions: α-thrombin, 15 minutes at 37° C.
T1 construct: the full-length human Jagged1 transcript was in vitro translated; made in house; host or cells: cell-free: T7-coupled reticulocyte lysate system (Promega)
Procedure: (§1) A plasmid containing human Jagged1 (Zinrin et al., 1996, J. Biol. Chem. 271:32499-32502) was in vitro transcribed and in vitro translated in the presence of a (^35S)-Met/Cys protein-labeling mixture (Amersham) using the T7-coupled reticulocyte lysate system according to the manufacturer's instructions (Promega) in a total volume of 50 μl. After 60 minutes incubation at 30° C., 0.05% DTT was added, half of the reaction mixture incubated with 10 μg α-thrombin for 15 minutes at 37° C., and the reaction stopped by boiling in the presence of SDS-PAGE sample buffer. The samples were resolved by 12% SDS-PAGE, transferred to a nitrocellulose membrane, and analyzed by autoradiography. The bands corresponding to the thrombin cleavage products were excised and subjected to automated Edman microsequencing (Applied Bio Sciences). The products of each cycle were collected prior to resolution by HPLC, added to liquid scintillation fluid (Beckman) and the (^35S) samples quantitated by liquid scintillation spectroscopy (Beckman).

human Jagged1 [4] = target: T2, human Jagged1 (Homo sapiens, UniProt P78504); test: as above; assay type: biochemical; conditions: Edman chemistry of 95 kDa fragment
T2 construct: the full-length human Jagged1 transcript was in vitro translated; made in house; host or cells: cell-free: T7-coupled reticulocyte lysate system (Promega)
Procedure: as §1

Delta1 = target: T3, Delta1 (Homo sapiens, UniProt O00548); test: Thrombin treatment of in vitro translated Delta1; assay type: biochemical
T3 construct: made in house; host or cells: cell-free in vitro translation (system not described for Delta1)

NSC populations = test: NSC clonal expansion on full-length Jagged1 NIH 3T3 feeder layer; assay type: cell-based; conditions: 5 μg/ml thrombin
Source text: To further evaluate the activity of thrombin as a modifier of Jagged1, the clonal expansion studies were repeated using NSC populations cultured in the presence of a viable full-length Jagged1 NIH 3T3 cell transfectant feeder layer.

T2 sequence (P78504 34-1218 A1171G): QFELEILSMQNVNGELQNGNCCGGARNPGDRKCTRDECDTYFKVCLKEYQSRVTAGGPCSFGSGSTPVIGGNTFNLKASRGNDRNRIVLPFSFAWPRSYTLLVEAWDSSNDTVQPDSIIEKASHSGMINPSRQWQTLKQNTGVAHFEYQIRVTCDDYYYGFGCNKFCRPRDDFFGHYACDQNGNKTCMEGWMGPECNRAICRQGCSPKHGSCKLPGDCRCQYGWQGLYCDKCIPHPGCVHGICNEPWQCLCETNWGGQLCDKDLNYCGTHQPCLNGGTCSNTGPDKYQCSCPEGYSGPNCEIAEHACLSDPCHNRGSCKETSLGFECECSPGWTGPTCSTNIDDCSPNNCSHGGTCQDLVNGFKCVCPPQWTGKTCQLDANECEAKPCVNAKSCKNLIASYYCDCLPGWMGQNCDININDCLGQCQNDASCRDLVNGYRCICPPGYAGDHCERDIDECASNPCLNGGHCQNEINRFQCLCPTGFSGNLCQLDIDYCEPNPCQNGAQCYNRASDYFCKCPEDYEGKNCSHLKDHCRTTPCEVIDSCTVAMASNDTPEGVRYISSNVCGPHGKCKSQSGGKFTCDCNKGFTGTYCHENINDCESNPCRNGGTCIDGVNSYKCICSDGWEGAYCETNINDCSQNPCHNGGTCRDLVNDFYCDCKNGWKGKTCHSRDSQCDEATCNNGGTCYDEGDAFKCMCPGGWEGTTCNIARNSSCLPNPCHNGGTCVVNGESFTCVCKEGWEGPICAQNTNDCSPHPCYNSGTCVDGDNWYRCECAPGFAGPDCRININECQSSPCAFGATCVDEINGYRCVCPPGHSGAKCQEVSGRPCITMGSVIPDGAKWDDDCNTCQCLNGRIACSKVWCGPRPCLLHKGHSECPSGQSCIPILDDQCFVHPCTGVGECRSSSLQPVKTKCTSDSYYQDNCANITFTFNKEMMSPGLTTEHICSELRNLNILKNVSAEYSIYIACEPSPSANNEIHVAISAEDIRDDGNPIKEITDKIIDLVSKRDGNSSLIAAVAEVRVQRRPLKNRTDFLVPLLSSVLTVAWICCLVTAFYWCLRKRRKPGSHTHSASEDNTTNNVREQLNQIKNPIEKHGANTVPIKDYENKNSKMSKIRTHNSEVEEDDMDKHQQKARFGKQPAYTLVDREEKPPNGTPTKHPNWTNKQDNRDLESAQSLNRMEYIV
T1 sequence (P78504 34-1218 A1171G): as above
T3 sequence (O00548 18-723): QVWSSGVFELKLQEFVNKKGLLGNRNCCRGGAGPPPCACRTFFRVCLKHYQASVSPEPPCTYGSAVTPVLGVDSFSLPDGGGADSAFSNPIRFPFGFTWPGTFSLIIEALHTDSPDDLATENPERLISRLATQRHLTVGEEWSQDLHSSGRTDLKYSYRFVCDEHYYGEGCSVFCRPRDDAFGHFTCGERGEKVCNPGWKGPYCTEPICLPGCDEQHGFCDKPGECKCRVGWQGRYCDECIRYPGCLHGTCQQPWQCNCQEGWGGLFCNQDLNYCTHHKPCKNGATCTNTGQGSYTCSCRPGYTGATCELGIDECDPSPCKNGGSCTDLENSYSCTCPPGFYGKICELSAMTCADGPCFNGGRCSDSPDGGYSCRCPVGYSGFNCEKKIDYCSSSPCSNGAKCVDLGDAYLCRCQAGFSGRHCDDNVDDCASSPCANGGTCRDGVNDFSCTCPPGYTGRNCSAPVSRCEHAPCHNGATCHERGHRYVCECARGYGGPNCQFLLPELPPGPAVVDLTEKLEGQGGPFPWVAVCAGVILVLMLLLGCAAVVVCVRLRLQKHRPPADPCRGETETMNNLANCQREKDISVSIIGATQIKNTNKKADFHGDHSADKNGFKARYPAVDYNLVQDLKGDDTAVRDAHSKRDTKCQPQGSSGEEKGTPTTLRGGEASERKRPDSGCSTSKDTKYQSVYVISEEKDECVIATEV

| Molecule | level of active Src (Src) | FGF1 release under normal growth conditions [1] | F-actin stress fibers and focal adhesion sites [2] | migratory behavior (NIH 3T3 cells) | cleavage of 134 kDa Jagged1 translation product (human Jagged1 [3]) | Jagged1 cleavage site (human Jagged1 [4]) | proteolytic modification of Delta1 translation product (Delta1) | size of NSC colonies on full-length Jagged1 feeder layer (NSC populations) |
| --- | --- | --- | --- | --- | --- | --- | --- | --- |
| sJ1: Soluble Jagged1, amino acid residues about 1 to 1067 (SEQ ID NO:3) of full-length human Jagged1 | increase in the level of active Src | significant release of FGF1 at 37 °C | significantly reduced actin stress fibers and focal adhesion sites | exhibited a decrease in their migratory potential | – | – | – | – |
| thrombin | – | – | – | – | cleavage of the full-length Jagged1 protein into 39 kDa and 95 kDa fragments | between residues R348 and G349 | unable to proteolytically modify the in vitro translation product of the Delta1 transcript | exaggeration of the size of the NSC colonies |
| sDl1: soluble non-transmembrane form (extracellular domain) of the Notch ligand Delta1 (protein, left off: small tags and cut ends, soluble non-transmembrane form (extracellular domain) of the Notch ligand Delta1) QVWSSGVFELKLQEFVNKKGLLGNRNCCRGGAGPPPCACRTFFRVCLKHYQASVSPEPPCTYGSAVTPVLGVDSFSLPDGGGADSAFSNPIRFPFGFTWPGTFSLIIEALHTDSPDDLATENPERLISRLATQRHLTVGEEWSQDLHSSGRTDLKYSYRFVCDEHYYGEGCSVFCRPRDDAFGHFTCGERGEKVCNPGWKGPYCTEPICLPGCDEQHGFCDKPGECKCRVGWQGRYCDECIRYPGCLHGTCQQPWQCNCQEGWGGLFCNQDLNYCTHHKPCKNGATCTNTGQGSYTCSCRPGYTGATCELGIDECDPSPCKNGGSCTDLENSYSCTCPPGFYGKICELSAMTCADGPCFNGGRCSDSPDGGYSCRCPVGYSGFNCEKKIDYCSSSPCSNGAKCVDLGDAYLCRCQAGFSGRHCDDNVDDCASSPCANGGTCRDGVNDFSCTCPPGYTGRNCSAPVSRCEHAPCHNGATCHERGHRYVCECARGYGGPNCQFLLPELPPGPAVVDLTEKLEGQGGPFPW | increase in the level of active Src | – | normal levels of F-actin stress fibers and focal adhesion sites | displayed normal motility | – | – | – | – |
